We go through 18 compounds from patent EP4810484A1, “NEUROACTIVE ANDROGEN RECEPTOR MODULATOR AND USE THEREOF” (Endochem Pharmaceuticals (Beijing) Co., Ltd., priority 2023, dated 2025).

For orientation: logP means a log measure of how a compound divides between an organic and an aqueous phase. Read a low logP as lower lipophilicity. One may read the Emax as the maximal effect, on the per cent scale that the assay sets.

Data set [1] in a line: Mouse blood-brain barrier permeation assay (LC-MS/MS of serum and brain). In kind it is in vivo, C57BL/6J mice. To be noted: for concentrations of the compound detected in serum and brain (in words): 20 mg/kg intraperitoneal. How it is done:
Mouse blood-brain barrier permeation assay
Blood was collected by decapitation from the mice (each time point/3 mice) at the following time points: 30 min, 1 h, 2 h, 3 h, 4 h, 8 h, and brain tissue and blood were harvested at 12 h, 24 h, 36 h, 48 h and 72 h. • (3) When collecting serum, heparin sodium blood collection tubes were used.
The supernatant was filtered through a 0.22 µm filter and analyzed by LC-MS/MS.

In data set [2] the target is T1, recombinant human androgen receptor (AR) protein (Homo sapiens, UniProt P10275).
T1 construct: RPB252Hu03, Ile673-His918 with N-terminal His Tag; His tag (N); purchased CLOUD-CLONE CORP; WUHAN RPB252Hu03
T1 sequence (P10275 673-918): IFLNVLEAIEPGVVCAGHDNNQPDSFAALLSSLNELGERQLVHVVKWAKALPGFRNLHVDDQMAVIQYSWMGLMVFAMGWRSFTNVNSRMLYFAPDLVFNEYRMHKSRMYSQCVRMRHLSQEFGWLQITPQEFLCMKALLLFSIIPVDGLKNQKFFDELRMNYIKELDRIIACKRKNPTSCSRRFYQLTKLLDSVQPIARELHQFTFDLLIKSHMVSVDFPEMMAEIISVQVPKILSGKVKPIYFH
The data set can be described thus: Small molecule-protein affinity (protein-ligand coupling) assay, Biacore T200 SPR. In kind it is binding. To be noted: summary of Table 1. On the technique in general: SPR reads the build-up and loss of mass on a sensor chip optically.

A short description of data set [3]: Log P (Table 1, no method described).
Another data set addresses T2, androgen receptors (Homo sapiens, UniProt P10275).
T2 construct: expressed in transfected cells; host or cells: HEK293T (ATCC, CRL-3216)
T2 sequence (P10275 1-920): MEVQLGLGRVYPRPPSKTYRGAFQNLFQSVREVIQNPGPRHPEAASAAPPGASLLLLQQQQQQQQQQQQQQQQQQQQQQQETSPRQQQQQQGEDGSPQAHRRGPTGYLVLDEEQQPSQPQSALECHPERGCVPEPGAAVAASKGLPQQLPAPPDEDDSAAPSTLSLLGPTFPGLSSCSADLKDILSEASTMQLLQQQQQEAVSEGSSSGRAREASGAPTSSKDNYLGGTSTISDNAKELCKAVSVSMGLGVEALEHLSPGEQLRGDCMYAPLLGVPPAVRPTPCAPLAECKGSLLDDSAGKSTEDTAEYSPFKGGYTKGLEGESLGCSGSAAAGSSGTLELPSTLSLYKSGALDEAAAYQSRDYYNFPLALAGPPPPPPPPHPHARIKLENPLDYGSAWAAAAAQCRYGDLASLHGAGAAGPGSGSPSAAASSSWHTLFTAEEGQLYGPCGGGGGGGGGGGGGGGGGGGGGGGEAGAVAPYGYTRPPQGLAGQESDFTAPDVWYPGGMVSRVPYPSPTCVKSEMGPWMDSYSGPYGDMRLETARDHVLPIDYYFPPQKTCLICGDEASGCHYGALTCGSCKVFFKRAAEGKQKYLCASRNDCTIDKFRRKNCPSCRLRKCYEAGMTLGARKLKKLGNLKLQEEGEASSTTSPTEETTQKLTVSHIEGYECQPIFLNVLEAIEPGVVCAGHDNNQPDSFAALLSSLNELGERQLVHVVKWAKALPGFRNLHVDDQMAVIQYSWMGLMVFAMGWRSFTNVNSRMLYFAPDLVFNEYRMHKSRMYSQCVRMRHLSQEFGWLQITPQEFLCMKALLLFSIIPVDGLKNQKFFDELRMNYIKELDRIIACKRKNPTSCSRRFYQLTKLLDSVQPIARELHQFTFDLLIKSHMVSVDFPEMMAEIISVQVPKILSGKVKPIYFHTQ
The data set can be described thus: Androgen Receptor Reporter Gene Assay in plasmid-transfected HEK293T cells. In kind it is cell-based. To be noted: HEK-293T. (In general: A reporter such as luciferase makes a cellular process visible.)

Structures are written as SMILES.

In the case of `C[C@@](COc1ccc(C#N)cc1)(OC(=O)c1ccccc1)C(=O)Nc1cnc(C#N)c(C(F)(F)F)c1` [Example 26, (S)-1-((6-cyano-5-(trifluoromethyl)pyridin-3-yl)amino)-3-(4-cyanophenoxy)-2-methyl-1-oxopropan-2-yl benzoate], the “concentrations of the compound detected in serum and brain (in words)” value (shortened to “concentrations of the compound detected”) in data set [1] was “lower concentrations of the compound and higher concentrations of metabolites were detected in serum and brain”. The “affinity to the androgen receptor proteins (in words)” value in data set [2] is listed as “strong affinity”. In data set [3], this compound gave a logP of 4.65.
In the case of `C[C@](O)(COc1ccc(C#N)c(F)c1)C(=O)Nc1cnc(C#N)c(C(F)(F)F)c1` [Example 8, (S)-3-(4-cyano-3-fluorophenoxy)-N-(6-cyano-5-(trifluoromethyl)pyridin-3-yl)-2-hydroxy-2-methylpropionamide], in data set [1], the “concentrations of the compound detected” value was “certain concentrations of the compound were detected in serum and brain up to 72 h after administration”.
For `C[C@](O)(COc1ccc(C#N)cc1)C(=O)Nc1cnc(C#N)c(C(F)(F)F)c1` [Example 3, (S)-N-(6-cyano-5-(trifluoromethyl)pyridin-3-yl)-3-(4-cyanophenoxy)-2-hydroxy-2-methylpropionamide], the “concentrations of the compound detected” value in data set [1] was “certain concentrations of the compound were detected in serum and brain up to 72 h after administration”. Moreover, the lipophilicity (logP) in data set [3] is 2.53.
As to `C[C@](O)(COc1ccc(C#N)nc1)C(=O)Nc1cnc(C#N)c(C(F)(F)F)c1` [Example 5, (S)-N-(6-cyano-5-(trifluoromethyl)pyridin-3-yl)-3-((6-cyanopyridin-3-yl)oxy)-2-hydroxy-2-methylpropionamide], in data set [3], the logP turned out to be 1.61.
The same measure, in the same setting: then `C[C@@](COc1ccc(C#N)nc1)(OC(=O)c1cccnc1)C(=O)Nc1ccc(C#N)c(C(F)(F)F)c1` [Example 11, (S)-1-((4-cyano-3-(trifluoromethyl)phenyl)amino)-3-((6-cyanopyridin-3-yl)oxy)-2-methyl-1-oxopropan-2-yl nicotinate], with 3.32.
For `CC(=O)O[C@@](C)(COc1ccc(C#N)cc1)C(=O)Nc1cnc(C#N)c(C(F)(F)F)c1` [Example 24, (S)-1-((6-cyano-5-(trifluoromethyl)pyridin-3-yl)amino)-3-(4-cyanophenoxy)-2-methyl-1-oxopropan-2-yl acetate], in data set [1] (compared with the compound of Example 3), the “bioavailability in the brain” value is “significantly improved”. For the same compound, in data set [3], the logP was found to be 2.76.
As to `CN(C)CCC(=O)O[C@@](C)(COc1ccc(C#N)cc1)C(=O)Nc1cnc(C#N)c(C(F)(F)F)c1` [Example 14, (S)-1-((6-cyano-5-(trifluoromethyl)pyridin-3-yl)amino)-3-(4-cyanophenoxy)-2-methyl-1-oxopropyl-2-yl 3-(dimethylamino)propanate], in data set [3], the logP turned out to be 2.86.
On androgen receptors, `C[C@](O)(COc1ccc(C#N)cc1)C(=O)Nc1ccc(C#N)c(C(F)(F)F)c1` [Ostarine, reference compound] gave an Emax of 78.4%. Also, in data set [2], the “affinity to the androgen receptor proteins (in words)” value is “no binding affinity”. The compound further registered a logP in data set [3] of 3.49.
Consider `C[C@](O)(Cn1cnc(C(F)(F)F)cc1=O)C(=O)Nc1ccc(C#N)c(C(F)(F)F)c1` [Example 2], for which the lipophilicity (logP) in data set [3] turned out to be 3.53.
Compound `CCCS(=O)(=O)O[C@@](C)(COc1ccc(C#N)cc1)C(=O)Nc1cnc(C#N)c(C(F)(F)F)c1` [Example 17, (S)-1-((6-cyano-5-(trifluoromethyl)pyridin-3-yl)amino)-3-(4-cyanophenoxy)-2-methyl-1-oxopropan-2-yl propane-1-sulfonate] returned a logP in data set [3] of 3.07.
Still for that read-out and setting: for `CN1CCC(C(=O)O[C@@](C)(COc2ccc(C#N)cc2)C(=O)Nc2cnc(C#N)c(C(F)(F)F)c2)CC1` [Example 19, (S)-1-((6-cyano-5-(trifluoromethyl)pyridin-3-yl)amino)-3-(4-cyanophenoxy)-2-methyl-1-oxopropyl-2-yl-1-methylpiperidine-4-carboxylate] the value was 3.2.
`CCC(=O)O[C@@](C)(COc1ccc(C#N)cc1)C(=O)Nc1cnc(C#N)c(C(F)(F)F)c1` [Example 28, (S)-1-((6-cyano-5-(trifluoromethyl)pyridin-3-yl)amino)-3-(4-cyanophenoxy)-2-methyl-1-oxopropan-2-yl-propionate]: the “concentrations of the compound detected” value in data set [1] is “lower concentrations of the compound and higher concentrations of metabolites were detected in serum and brain”.
On the same count and under the same terms, then `CC(C)C(=O)O[C@@](C)(COc1ccc(C#N)cc1)C(=O)Nc1cnc(C#N)c(C(F)(F)F)c1` [Example 21, (S)-1-((6-cyano-5-(trifluoromethyl)pyridin-3-yl)amino)-3-(4-cyanophenoxy)-2-methyl-1-oxopropan-2-yl isobutyrate], with “lower concentrations of the compound and higher concentrations of metabolites were detected in serum and brain”.
`C[C@](O)(COc1ccc(C#N)nc1)C(=O)Nc1ccc(C#N)c(C(F)(F)F)c1` [Example 4, (S)-N-(4-cyano-3-(trifluoromethyl)phenyl)-3-((6-cyanopyridin-3-yl)oxy)-2-hydroxy-2-methylpropionamide]: the logP in data set [3] was determined as 2.53.
On to `C[C@@](COc1ccc(C#N)cc1)(OC(=O)CCCC[C@@H]1CCSS1)C(=O)Nc1cnc(C#N)c(C(F)(F)F)c1` [Example 15, (S)-1-((6-cyano-5-(trifluoromethyl)pyridin-3-yl)amino)-3-(4-cyanophenoxy)-2-methyl-1-oxopropyl-2-yl 5-((R)-1,2-dithiolan-3-yl) pentanoate], for which the “concentrations of the compound detected” value in data set [1] is “no effective concentration of the compound was detected in serum and brain”.
Compound `CN1C=CCC(C(=O)O[C@@](C)(COc2ccc(C#N)cc2)C(=O)Nc2ccc(C#N)c(C(F)(F)F)c2)=C1` [Example 35, (S)-1-((4-cyano-3-(trifluoromethyl)phenyl)amino)-3-(4-cyanophenoxy)-2-methyl-1-oxopropan-2-yl 1-methyl-1,4-dihydropyridine-3-carboxylate] yielded a logP in data set [3] of 4.45.
Consider `C[C@@](COc1ccc(C#N)cc1)(OC(=O)c1cccnc1)C(=O)Nc1cnc(C#N)c(C(F)(F)F)c1` [Example 13, (S)-1-((6-cyano-5-(trifluoromethyl)pyridin-3-yl)amino)-3-(4-cyanophenoxy)-2-methyl-1-oxopropan-2-yl nicotinate], for which the “concentrations of the compound detected” value in data set [1] is “lower concentrations of the compound and higher concentrations of metabolites were detected in serum and brain”. The logP in data set [3] came to 3.32.
In turn, `C[C@](O)(Cn1cnc(C(F)(F)F)cc1=O)C(=O)Nc1cnc(C#N)c(C(F)(F)F)c1` [Example 1] yielded a logP in data set [3] of 2.62.
